Values of other authors in US20140100282A1, “INTRANASAL ADMINISTRATION OF PHARMACEUTICAL AGENTS FOR TREATMENT OF NEUROLOGICAL DISEASES” (priority 2012, published 2014).
Like-named read-outs stand apart in the source and are kept apart here.

Assays:
[1] = mouse, intravenous, autoradiography after 30 minutes
[2] = intranasal
[3] = system: protein phosphatase 2A (PP2A); settings: murine primary neurons from wild-type and human tau transgenic mice
[4] = system: amyloid beta; settings: monotherapy at doses that lead to activation of AMPK
[5] = system: tau; settings: transgenic mice
[6] = animal and humans
[7] = system: glioblastoma cells

NCCc1c[nH]cn1 [histamine]
penetration into the brain or spinal cord through the BBB [1]: zero penetration

insulin: intranasal insulin (20 and 40 IU)
cognition on Alzheimer Disease's Assessment Scale-cognitive subscale ([2]; 20 and 40 IU, compared with placebo): less decline in cognition | recall of episodic memories ([2]; 20 or 40 IU for 4 months, relative to placebo): improved recall of episodic memories | brain glucose uptake and utilization ([2]; over the 4-month period, compared with placebo): reduced decline in brain glucose uptake and utilization

CN(C)C(=N)NC(=N)N [metformin]
PP2A activity [3]: induces PP2A activity | generation of amyloid beta species [4]: significantly increases | phosphorylation of Ser202 ([5]; 100 nM): decreased phosphorylation of Ser202 slightly | phosphorylation of Ser202 ([5]; 10 μM): significantly reduced | absorption from the blood to the brain [6]: negligible | migration of glioblastoma cells [7]: significantly inhibited | growth of glioblastoma cells ([7]; basal and leptin-stimulated): reduced basal and leptin-stimulated growth of glioblastoma cells in a dose-dependent manner
